Assay results published in patent publication US7396837B2, “Antitumoral analogs of lamellarins” (Pharma Mar, S.A.U., priority 2002, dated 2008).
Like-named read-outs stand apart in the source and are kept apart here.

Key:
Assay type in all cases: cell-based
K-562 = experiment: SRB colorimetric cell growth inhibition assay, K-562; conditions: Homo sapiens, K562, K-562
Text: (§1) The finality of these assays is to interrupt the growth of an “in vitro” tumor cell culture by means a continued exhibition of the cells to the sample to be testing.
(§2) A colorimetric type of assay, using sulforhodamine B (SRB) reaction has been adapted for a quantitative measurement of cell growth and viability (following the technique described by P. A. Skehan, et al., J. Natl. Cancer Inst. 1990, 82, 1107-1112).
(§3) This form of assay employs 96 well cell culture microplates of 9 mm diameter (T. Mosmann et al., J. of Immunological Methods 1983, 65, 55-63; G. T. Faircloth et al., J. of Tissue and Culture Methods 1988, 11, 201-205).
(§4) Most of the cell lines are obtained from American Type Culture Collection (ATCC) derived from different human cancer types.
(§5) The values for mean +/− SD of data from triplicate wells are calculated. Some parameters for cellular responses can be calculated: GI=growth inhibition, TGI=total growth inhibition (cytostatic effect) and LC=cell killing (cytotoxic effect).

A-549 = experiment: SRB colorimetric cell growth inhibition assay, A-549; conditions: for GI50: GI=growth inhibition, read-out: GI50 A-549; for CC50: cell killing (cytotoxic effect), read-out: LC50 A-549; for IC (TGI): total growth inhibition (cytostatic effect), read-out: TGI A-549
Text: as §1, §2, §3, §4, §5

HT-29 = experiment: SRB colorimetric cell growth inhibition assay, HT-29; conditions: for GI50: GI=growth inhibition, read-out: GI50 HT-29; for CC50: cell killing (cytotoxic effect), read-out: LC50 HT-29
Text: as §1, §2, §3, §4, §5

LoVo = experiment: SRB colorimetric cell growth inhibition assay, LoVo; conditions: for GI50: GI=growth inhibition, read-out: GI50 LOVO; for CC50: cell killing (cytotoxic effect), read-out: LC50 LOVO
Text: as §1, §2, §3, §4, §5

LoVo-Dox = experiment: SRB colorimetric cell growth inhibition assay, LoVo-Dox (MDR); conditions: LOVO-DOX; for GI50: GI=growth inhibition, read-out: GI50 LOVO-DOX; for CC50: cell killing (cytotoxic effect), read-out: LC50 LOVO-DOX
Text: as §1, §2, §3, §4, §5

DU-145 = experiment: SRB colorimetric cell growth inhibition assay, DU-145; conditions: for GI50: GI=growth inhibition, read-out: GI50 DU-145; for CC50: cell killing (cytotoxic effect), read-out: LC50 DU-145
Text: as §1, §2, §3, §4, §5

SK-BR-3 = experiment: SRB colorimetric cell growth inhibition assay, SK-BR-3; conditions: for GI50: GI=growth inhibition, read-out: GI50 SK-BR-3; for CC50: cell killing (cytotoxic effect), read-out: LC50 SK-BR-3
Text: as §1, §2, §3, §4, §5

IGROV = experiment: SRB colorimetric cell growth inhibition assay, IGROV; conditions: IGROV; for GI50: GI=growth inhibition, read-out: GI50 IGROV; for CC50: cell killing (cytotoxic effect), read-out: LC50 IGROV
Text: as §1, §2, §3, §4, §5

IGROV-ET = experiment: SRB colorimetric cell growth inhibition assay, IGROV-ET (ET-743 resistant); conditions: IGROV-ET; for GI50: GI=growth inhibition, read-out: GI50 IGROV-ET; for CC50: cell killing (cytotoxic effect), read-out: LC50 IGROV-ET
Text: as §1, §2, §3, §4, §5

HeLa = experiment: SRB colorimetric cell growth inhibition assay, HeLa; conditions: Homo sapiens, HeLa; for GI50: GI=growth inhibition, read-out: GI50 HELA; for CC50: read-out: LC50 HELA; for IC (TGI): read-out: TGI HELA
Text: as §1, §2, §3, §4, §5

HeLa-APL = experiment: SRB colorimetric cell growth inhibition assay, HeLa-APL (aplidine resistant); conditions: Homo sapiens; for GI50: read-out: GI50 HELA-APL; for CC50: read-out: LC50 HELA-APL; for IC (TGI): read-out: TGI HELA-APL
Text: as §1, §2, §3, §4, §5

PANC-1 = experiment: SRB colorimetric cell growth inhibition assay, PANC-1; conditions: for GI50: GI=growth inhibition, read-out: GI50 PANC-1; for CC50: cell killing (cytotoxic effect), read-out: LC50 PANC-1
Text: as §1, §2, §3, §4, §5

SK-MEL-28 = experiment: SRB colorimetric cell growth inhibition assay, SK-MEL-28; conditions: MEL-28
Text: as §1, §2, §3, §4, §5

[1] = total growth inhibition (cytostatic effect)

Structure (SMILES): C=CCOC(=O)N[C@@H](C)C(=O)Oc1ccc(-c2c3c4cc(OC)c(OC(=O)[C@H](C)NC(=O)OCC=C)cc4oc(=O)c3n3ccc4cc(OC(=O)[C@H](C)NC(=O)OCC=C)c(OC)cc4c23)cc1OC [Compound 210]
- GI50 (K-562; GI=growth inhibition, read-out: GI50 K-562): 0.612 µM
- CC50 (K-562; cell killing (cytotoxic effect), read-out: LC50 K-562): 6.17 µM
- IC (TGI) (K-562; total growth inhibition (cytostatic effect), read-out: TGI K-562): 2.13 µM
- GI50 (A-549; Homo sapiens, A549, A-549): 0.477 µM
- CC50 (A-549; Homo sapiens, A549, A-549): 10.4 µM
- IC (TGI) (A-549; Homo sapiens, A549, A-549): 3.94 µM
- GI50 (HT-29; Homo sapiens, HT-29, HT-29): 7.09 µM
- CC50 (HT-29; Homo sapiens, HT-29, HT-29): 10.4 µM
- IC (TGI) (HT-29; Homo sapiens, HT-29, HT-29, total growth inhibition (cytostatic effect), read-out: TGI HT-29): 10.4 µM
- GI50 (LoVo; Homo sapiens, LoVo): 2.05 µM
- CC50 (LoVo; Homo sapiens, LoVo): 7.76 µM
- IC (TGI) (LoVo; Homo sapiens, LoVo, total growth inhibition (cytostatic effect), read-out: TGI LOVO): 3.99 µM
- GI50 (LoVo-Dox; Homo sapiens): 2.43 µM
- CC50 (LoVo-Dox; Homo sapiens): 10.4 µM
- IC (TGI) (LoVo-Dox; Homo sapiens, total growth inhibition (cytostatic effect), read-out: TGI LOVO-DOX): 6.04 µM
- GI50 (DU-145; Homo sapiens, DU-145, DU-145): 0.181 µM
- CC50 (DU-145; Homo sapiens, DU-145, DU-145): 0.631 µM
- IC (TGI) (DU-145; Homo sapiens, DU-145, DU-145, total growth inhibition (cytostatic effect), read-out: TGI DU-145): 0.339 µM
- GI50 (SK-BR-3; Homo sapiens, SK-BR-3, SK-BR-3): 0.397 µM
- CC50 (SK-BR-3; Homo sapiens, SK-BR-3, SK-BR-3): 4.59 µM
- IC (TGI) (SK-BR-3; Homo sapiens, SK-BR-3, SK-BR-3, total growth inhibition (cytostatic effect), read-out: TGI SK-BR-3): 1.36 µM
- GI50 (IGROV; Homo sapiens): 0.317 µM
- CC50 (IGROV; Homo sapiens): 3.65 µM
- IC (TGI) (IGROV; Homo sapiens, total growth inhibition (cytostatic effect), read-out: TGI IGROV): 1.06 µM
- GI50 (IGROV-ET; Homo sapiens): 0.145 µM
- CC50 (IGROV-ET; Homo sapiens): 0.92 µM
- IC (TGI) (IGROV-ET; Homo sapiens, total growth inhibition (cytostatic effect), read-out: TGI IGROV-ET): 0.366 µM
- GI50 (HeLa): 0.611 µM
- CC50 (HeLa; cell killing (cytotoxic effect)): 10.4 µM
- IC (TGI) (HeLa; [1]): 5.54 µM
- GI50 (HeLa-APL; HELA-APL, GI=growth inhibition): 0.516 µM
- CC50 (HeLa-APL; HELA-APL, cell killing (cytotoxic effect)): 10.4 µM
- IC (TGI) (HeLa-APL; HELA-APL, total growth inhibition (cytostatic effect)): 3.08 µM
- GI50 (PANC-1; Homo sapiens, PANC-1, PANC-1): 0.398 µM
- CC50 (PANC-1; Homo sapiens, PANC-1, PANC-1): 4.87 µM
- IC (TGI) (PANC-1; Homo sapiens, PANC-1, PANC-1, total growth inhibition (cytostatic effect), read-out: TGI PANC-1): 1.51 µM

Structure (SMILES): COc1cc2ccn3c(c(-c4ccc(OC(=O)[C@@H](N)Cc5ccccc5)c(OC)c4)c4c5cc(OC)c(OC(=O)[C@@H](N)Cc6ccccc6)cc5oc(=O)c43)c2cc1OC [Compound 13]
- GI50 (A-549; A-549): 0.906 µM
- CC50 (A-549; A-549): 12.4 µM
- IC (TGI) (A-549; Homo sapiens, A549, A-549): 12.4 µM
- GI50 (SK-MEL-28; GI=growth inhibition, read-out: GI50 MEL-28): 3.11 µM
- CC50 (SK-MEL-28; cell killing (cytotoxic effect), read-out: LC50 MEL-28): 12.4 µM
- TGI MEL-28 (SK-MEL-28; [1]): 1.09E−05 Molar
- GI50 (HT-29; HT-29): 3.22 µM
- CC50 (HT-29; HT-29): 12.4 µM
- TGI HT-29 (HT-29; HT-29, total growth inhibition (cytostatic effect)): 6.39E−06 Molar
- GI50 (LoVo; LOVO): 0.754 µM
- CC50 (LoVo; LOVO): 9.02 µM
- TGI LOVO (LoVo; LOVO, total growth inhibition (cytostatic effect)): 2.35E−06 Molar
- GI50 (LoVo-Dox): 0.675 µM
- CC50 (LoVo-Dox): 12.4 µM
- TGI LOVO-DOX (LoVo-Dox; [1]): 3.42E−06 Molar
- CC50 (DU-145; DU-145): 12.4 µM
- TGI DU-145 (DU-145; DU-145, total growth inhibition (cytostatic effect)): 3.64E−06 Molar
- GI50 (DU-145; Homo sapiens, DU-145, DU-145): 0.832 µM
- GI50 (SK-BR-3; SK-BR-3): 0.0454 µM
- CC50 (SK-BR-3; SK-BR-3): 10.2 µM
- TGI SK-BR-3 (SK-BR-3; SK-BR-3, total growth inhibition (cytostatic effect)): 1.13E−07 Molar
- GI50 (IGROV; Homo sapiens): 1.29 µM
- CC50 (IGROV): 12.4 µM
- TGI IGROV (IGROV; [1]): 4.79E−06 Molar
- GI50 (IGROV-ET; Homo sapiens): 1.96 µM
- CC50 (IGROV-ET): 12.4 µM
- TGI IGROV-ET (IGROV-ET; [1]): 7.86E−06 Molar
- CC50 (HeLa): 12.4 µM
- IC (TGI) (HeLa): 9.63 µM
- GI50 (HeLa): 1.83 µM
- GI50 (HeLa-APL): 2.6 µM
- CC50 (HeLa-APL): 12.4 µM
- IC (TGI) (HeLa-APL): 12.1 µM
- GI50 (PANC-1; PANC-1): 2.43 µM
- CC50 (PANC-1; PANC-1): 12.4 µM
- TGI PANC-1 (PANC-1; PANC-1, total growth inhibition (cytostatic effect)): 1.24E−05 Molar
